Reference: PMC12454493, “Insight on novel sulfamoylphenyl pyrazole derivatives as anticancer carbonic anhydrase inhibitors” (Molecular Diversity, 2024)
“And” between values parts separate entries of the source, which are not always exact repeats. Identical values can stand only once.

What was measured:
SF-268 = assay: NCI-60 one-dose SRB screen (CNS Cancer); assay type: cell-based; conditions: Homo sapiens, single dose 10 µM, 48 h, read-out: Growth inhibition percent (GI %)
Procedure: (§1) The National Cancer Institute (NCI) Developmental Therapeutic Program (www.dtp.nci.nih.gov) selected the 20 novel synthesized compounds 4a-e, 5a-e, 6a-c, 9a-e, 10 and 11 to test for their anticancer activity at a single dose of 10 µM using SRB assay. […] Supplementary Data S3; Table S1 presents the detailed screening results of the most promising compounds. The preliminary screening’s detailed results for the remaining compounds are elucidated in the (Supplementary Data S3; Table S2).
(§2) The guidelines of the Drug Evaluation Branch’s protocol at the NCI in Bethesda served as the basis for the in vitro anticancer screening assays. at one dose 10 µM against a panel of 60 cancer cell lines. The human tumor cell lines used belonged to nine panels: leukemia, melanoma, lung, colon, CNS, ovarian, renal, prostate and breast cancers using the sulforhodamine B (SRB) assay in a 48 h drug exposure protocol.

SNB-75 = assay: NCI-60 one-dose SRB screen (CNS Cancer); assay type: cell-based; conditions: Homo sapiens, single dose 10 µM, 48 h, read-out: Growth inhibition percent (GI %)
Procedure: as §1, §2

SF-539 = assay: NCI-60 one-dose SRB screen (CNS Cancer); assay type: cell-based; conditions: Homo sapiens, single dose 10 µM, 48 h, read-out: Growth inhibition percent (GI %)
Procedure: as §1, §2

U251 = assay: NCI-60 one-dose SRB screen (CNS Cancer); assay type: cell-based; conditions: Homo sapiens, U-251, single dose 10 µM, 48 h, read-out: Growth inhibition percent (GI %)
Procedure: as §1, §2

SNB-19 = assay: NCI-60 one-dose SRB screen (CNS Cancer); assay type: cell-based; conditions: Homo sapiens, single dose 10 µM, 48 h, read-out: Growth inhibition percent (GI %)
Procedure: as §1, §2

SF-295 = assay: NCI-60 one-dose SRB screen (CNS Cancer); assay type: cell-based; conditions: Homo sapiens, single dose 10 µM, 48 h, read-out: Growth inhibition percent (GI %)
Procedure: as §1, §2

NCI-H23 = assay: NCI-60 one-dose SRB screen (Non-Small Cell Lung Cancer); assay type: cell-based; conditions: Homo sapiens, single dose 10 µM, 48 h, read-out: Growth inhibition percent (GI %)
Procedure: as §1, §2

NCI-H460 = assay: as above; assay type: cell-based; conditions: Homo sapiens, single dose 10 µM, 48 h, read-out: Growth inhibition percent (GI %)
Procedure: as §1, §2

A549/ATCC = assay: as above; assay type: cell-based; conditions: Homo sapiens, single dose 10 µM, 48 h, read-out: Growth inhibition percent (GI %)
Procedure: as §1, §2

HOP-92 = assay: as above; assay type: cell-based; conditions: Homo sapiens, single dose 10 µM, 48 h, read-out: Growth inhibition percent (GI %)
Procedure: as §1, §2

NCI-H226 = assay: as above; assay type: cell-based; conditions: Homo sapiens, single dose 10 µM, 48 h, read-out: Growth inhibition percent (GI %)
Procedure: as §1, §2

HOP-62 = assay: as above; assay type: cell-based; conditions: Homo sapiens, single dose 10 µM, 48 h, read-out: Growth inhibition percent (GI %)
Procedure: as §1, §2

EKVX = assay: as above; assay type: cell-based; conditions: Homo sapiens, single dose 10 µM, 48 h, read-out: Growth inhibition percent (GI %)
Procedure: as §1, §2

NCI-H522 = assay: as above; assay type: cell-based; conditions: Homo sapiens, single dose 10 µM, 48 h, read-out: Growth inhibition percent (GI %)
Procedure: as §1, §2

NCI-H322M = assay: as above; assay type: cell-based; conditions: Homo sapiens, single dose 10 µM, 48 h, read-out: Growth inhibition percent (GI %)
Procedure: as §1, §2

DU-145 = assay: NCI-60 one-dose SRB screen (Prostate Cancer); assay type: cell-based; conditions: Homo sapiens, single dose 10 µM, 48 h, read-out: Growth inhibition percent (GI %)
Procedure: as §1, §2

PC-3 = assay: NCI-60 one-dose SRB screen (Prostate Cancer); assay type: cell-based; conditions: Homo sapiens, single dose 10 µM, 48 h, read-out: Growth inhibition percent (GI %)
Procedure: as §1, §2

HL-60(TB) = assay: NCI-60 one-dose SRB screen (Leukemia); assay type: cell-based; conditions: Homo sapiens, single dose 10 µM, 48 h, read-out: Growth inhibition percent (GI %)
Procedure: as §1, §2

K-562 = assay: NCI-60 one-dose SRB screen (Leukemia); assay type: cell-based; conditions: Homo sapiens, K562, single dose 10 µM, 48 h, read-out: Growth inhibition percent (GI %)
Procedure: as §1, §2

RPMI-8226 = assay: NCI-60 one-dose SRB screen (Leukemia); assay type: cell-based; conditions: Homo sapiens, single dose 10 µM, 48 h, read-out: Growth inhibition percent (GI %)
Procedure: as §1, §2

CCRF-CEM = assay: NCI-60 one-dose SRB screen (Leukemia); assay type: cell-based; conditions: Homo sapiens, single dose 10 µM, 48 h, read-out: Growth inhibition percent (GI %)
Procedure: as §1, §2

MOLT-4 = assay: NCI-60 one-dose SRB screen (Leukemia); assay type: cell-based; conditions: Homo sapiens, single dose 10 µM, 48 h, read-out: Growth inhibition percent (GI %)
Procedure: as §1, §2

SK-MEL-28 = assay: NCI-60 one-dose SRB screen (Melanoma); assay type: cell-based; conditions: Homo sapiens, single dose 10 µM, 48 h, read-out: Growth inhibition percent (GI %)
Procedure: as §1, §2

UACC-257 = assay: NCI-60 one-dose SRB screen (Melanoma); assay type: cell-based; conditions: Homo sapiens, single dose 10 µM, 48 h, read-out: Growth inhibition percent (GI %)
Procedure: as §1, §2

UACC-62 = assay: NCI-60 one-dose SRB screen (Melanoma); assay type: cell-based; conditions: Homo sapiens, single dose 10 µM, 48 h, read-out: Growth inhibition percent (GI %)
Procedure: as §1, §2

MALME-3M = assay: NCI-60 one-dose SRB screen (Melanoma); assay type: cell-based; conditions: Homo sapiens, single dose 10 µM, 48 h, read-out: Growth inhibition percent (GI %)
Procedure: as §1, §2

LOX IMVI = assay: NCI-60 one-dose SRB screen (Melanoma); assay type: cell-based; conditions: Homo sapiens, single dose 10 µM, 48 h, read-out: Growth inhibition percent (GI %)
Procedure: as §1, §2

SK-MEL-5 = assay: NCI-60 one-dose SRB screen (Melanoma); assay type: cell-based; conditions: Homo sapiens, single dose 10 µM, 48 h, read-out: Growth inhibition percent (GI %)
Procedure: as §1, §2

MDA-MB-435 = assay: NCI-60 one-dose SRB screen (Melanoma); assay type: cell-based; conditions: Homo sapiens, single dose 10 µM, 48 h, read-out: Growth inhibition percent (GI %)
Procedure: as §1, §2

M14 = assay: NCI-60 one-dose SRB screen (Melanoma); assay type: cell-based; conditions: Homo sapiens, single dose 10 µM, 48 h, read-out: Growth inhibition percent (GI %)
Procedure: as §1, §2

hCA IX = hCA IX (Homo sapiens, UniProt Q16790); assay: CA inhibitory activity, spectrophotometric p-NPA assay; assay type: biochemical; conditions: p-NPA substrate, pH 7.5, 25 °C, triplicate; read-out: IC50 (µM) ± SD hCA IX
SK-OV-3 = assay: NCI-60 one-dose SRB screen (Ovarian cancer); assay type: cell-based; conditions: Homo sapiens, single dose 10 µM, 48 h, read-out: Growth inhibition percent (GI %)
Procedure: as §1, §2

OVCAR-8 = assay: NCI-60 one-dose SRB screen (Ovarian cancer); assay type: cell-based; conditions: Homo sapiens, single dose 10 µM, 48 h, read-out: Growth inhibition percent (GI %)
Procedure: as §1, §2

OVCAR-3 = assay: NCI-60 one-dose SRB screen (Ovarian cancer); assay type: cell-based; conditions: Homo sapiens, single dose 10 µM, 48 h, read-out: Growth inhibition percent (GI %)
Procedure: as §1, §2

OVCAR-5 = assay: NCI-60 one-dose SRB screen (Ovarian cancer); assay type: cell-based; conditions: Homo sapiens, single dose 10 µM, 48 h, read-out: Growth inhibition percent (GI %)
Procedure: as §1, §2

OVCAR-4 = assay: NCI-60 one-dose SRB screen (Ovarian cancer); assay type: cell-based; conditions: Homo sapiens, single dose 10 µM, 48 h, read-out: Growth inhibition percent (GI %)
Procedure: as §1, §2

IGROV1 = assay: NCI-60 one-dose SRB screen (Ovarian cancer); assay type: cell-based; conditions: Homo sapiens, IGROV-1, single dose 10 µM, 48 h, read-out: Growth inhibition percent (GI %)
Procedure: as §1, §2

BT-549 = assay: NCI-60 one-dose SRB screen (Breast Cancer); assay type: cell-based; conditions: Homo sapiens, single dose 10 µM, 48 h, read-out: Growth inhibition percent (GI %)
Procedure: as §1, §2

MDA-MB-231/ATCC = assay: NCI-60 one-dose SRB screen (Breast Cancer); assay type: cell-based; conditions: Homo sapiens, single dose 10 µM, 48 h, read-out: Growth inhibition percent (GI %)
Procedure: as §1, §2

HS 578T = assay: NCI-60 one-dose SRB screen (Breast Cancer); assay type: cell-based; conditions: Homo sapiens, single dose 10 µM, 48 h, read-out: Growth inhibition percent (GI %)
Procedure: as §1, §2

MDA-MB-468 = assay: NCI-60 one-dose SRB screen (Breast Cancer); assay type: cell-based; conditions: Homo sapiens, single dose 10 µM, 48 h, read-out: Growth inhibition percent (GI %)
Procedure: as §1, §2

T-47D = assay: NCI-60 one-dose SRB screen (Breast Cancer); assay type: cell-based; conditions: Homo sapiens, T47D, single dose 10 µM, 48 h, read-out: Growth inhibition percent (GI %)
Procedure: as §1, §2

MCF-7 = assay: NCI-60 one-dose SRB screen (Breast Cancer); assay type: cell-based; conditions: Homo sapiens, MCF7, single dose 10 µM, 48 h, read-out: Growth inhibition percent (GI %)
Procedure: as §1, §2

NS(=O)(=O)c1ccc(NC(=O)COC(=O)c2cn(-c3ccc(S(N)(=O)=O)cc3)nc2-c2ccc(Br)cc2)cc1 [Compound 4d, 2-Oxo-2-[(4-sulfamoylphenyl)amino] ethyl 3-(4-bromophenyl)-1-(4-sulfamoylphenyl)-1H-pyrazole-4-carboxylate]
inhibition at 10 µM (SF-268): 34.8% | inhibition at 10 µM (SNB-75): 64.3% | inhibition at 10 µM (SF-539): 26.7% | inhibition at 10 µM (U251): 25% | inhibition at 10 µM (SNB-19): 24.1% | inhibition at 10 µM (SF-295): < 5% | inhibition at 10 µM (NCI-H23): < 5% | inhibition at 10 µM (NCI-H460): < 5% | inhibition at 10 µM (A549/ATCC): < 5% | inhibition at 10 µM (HOP-92): 49.6% | inhibition at 10 µM (NCI-H226): < 5% | inhibition at 10 µM (HOP-62): < 5% | inhibition at 10 µM (EKVX): 21% | inhibition at 10 µM (NCI-H522): 19.8% | inhibition at 10 µM (NCI-H322M): 21.5% | inhibition at 10 µM (DU-145): < 5% | inhibition at 10 µM (PC-3): 23.1% | inhibition at 10 µM (HL-60(TB)): 37.6% | inhibition at 10 µM (K-562): 82.5% | inhibition at 10 µM (RPMI-8226): < 5% | inhibition at 10 µM (CCRF-CEM): 60.2% | inhibition at 10 µM (MOLT-4): 60.1% | inhibition at 10 µM (SK-MEL-28): < 5% | inhibition at 10 µM (UACC-257): < 5% | inhibition at 10 µM (UACC-62): 11.9% | inhibition at 10 µM (MALME-3M): < 5% | inhibition at 10 µM (LOX IMVI): 47.7% | inhibition at 10 µM (SK-MEL-5): 14.3% | inhibition at 10 µM (MDA-MB-435): 60.1% | inhibition at 10 µM (M14): 79.6% | IC50 (hCA IX): 0.5 µM and 0.509 µM | inhibition at 10 µM (SK-OV-3): < 5% | inhibition at 10 µM (OVCAR-8): < 5% | inhibition at 10 µM (OVCAR-3): 23% | inhibition at 10 µM (OVCAR-5): 12.3% | inhibition at 10 µM (OVCAR-4): 34.6% | inhibition at 10 µM (IGROV1): < 5% | inhibition at 10 µM (BT-549): 79.9% | inhibition at 10 µM (MDA-MB-231/ATCC): 33.9% | inhibition at 10 µM (HS 578T): 36.9% | inhibition at 10 µM (MDA-MB-468): 66.5% | inhibition at 10 µM (T-47D): 52.3% | inhibition at 10 µM (MCF-7): 56.4%
